Laboratory results published in patent US4280001A, “Biologically pure culture” (priority 1976, dated 1981).
Bridge positions count the residues as written; N and C are the ends. Square brackets hold non-standard residues; d marks the D form. Peptide text beside a SMILES is read from it. * marks the point of attachment. Ileψ(thiazoline)Cys = CC[C@H](C)[C@H](N)C1=N[C@H](C(=O)*)CS1; dOrn = NCCC[C@@H](N)C(=O)O

Experiments:
Type in all cases: cell-based
[1] = tested on: Staphylococcus aureus Tour resistant to streptomycin; assay: MIC against resistant Staphylococcus aureus strains (Table III); details: S. aureus Tour resistant to streptomycin
Source text: (§1) The new antibiotic substance is active also against microorganism strains which are resistant to other commonly used antibiotics.

[2] = tested on: Staphylococcus aureus ATCC 6538 resistant to erythromycin; assay: microbe, parasite or virus in culture; details: ATCC6538
Source text: as §1

[3] = tested on: Staphylococcus aureus ATCC 6538 resistant to cephaloridine; assay: microbe, parasite or virus in culture; details: ATCC6538
Source text: as §1

[4] = tested on: Staphylococcus aureus ATCC 6538 resistant to neomycin; assay: MIC against resistant Staphylococcus aureus strains (Table III); details: S. aureus ATCC 6538 resistant to neomycin
Source text: as §1

[5] = tested on: Staphylococcus aureus ATCC 6538 resistant to penicillin; assay: microbe, parasite or virus in culture; details: ATCC6538
Source text: as §1

[6] = tested on: Staphylococcus aureus ATCC 6538 resistant to kanamycin; assay: MIC against resistant Staphylococcus aureus strains (Table III); details: ATCC6538
Source text: as §1

[7] = tested on: Staphylococcus aureus ATCC 6538 resistant to tetracycline; assay: as above; details: ATCC6538
Source text: as §1

[8] = tested on: Staphylococcus aureus ATCC 6538 resistant to lincomycin; assay: microbe, parasite or virus in culture; details: ATCC6538
Source text: as §1

[9] = tested on: Staphylococcus aureus ATCC 6538 resistant to bacitracin; assay: microbe, parasite or virus in culture; details: ATCC6538
Source text: as §1

[10] = tested on: Staphylococcus aureus ATCC 6538 resistant to chloramphenicol; assay: microbe, parasite or virus in culture; details: ATCC6538
Source text: as §1

[11] = tested on: Staphylococcus aureus ATCC 6538 resistant to rifampicin; assay: MIC against resistant Staphylococcus aureus strains (Table III); details: ATCC6538
Source text: as §1

## [H]/N=C(/N)N[C@H]1[C@H](O)[C@@H](O)[C@H](O[C@@H]2O[C@@H](C)[C@](O)(C=O)[C@H]2O[C@@H]2O[C@@H](CO)[C@H](O)[C@@H](O)[C@@H]2NC)[C@@H](N/C(N)=N\[H])[C@@H]1O [streptomycin]
[1]
  MIC: > 100 µg/mL

## CC[C@H]1OC(=O)[C@H](C)[C@@H](O[C@H]2C[C@@](C)(OC)[C@@H](O)[C@H](C)O2)[C@H](C)[C@@H](O[C@@H]2O[C@H](C)C[C@H](N(C)C)[C@H]2O)[C@](C)(O)C[C@@H](C)C(=O)[C@H](C)[C@@H](O)[C@]1(C)O [erythromycin]
[2]
  MIC: > 100 µg/mL

## O=C(Cc1cccs1)N[C@@H]1C(=O)N2C(C(=O)[O-])=C(C[n+]3ccccc3)CS[C@H]12 [cephaloridine]
[3]
  MIC: > 100 µg/mL

## neomycin
[4]
  MIC: > 100 µg/mL

## CC1(C)S[C@@H]2[C@H](NC(=O)Cc3ccccc3)C(=O)N2[C@H]1C(=O)O [penicillin]
[5]
  MIC: > 100 µg/mL

## NC[C@H]1O[C@H](O[C@H]2[C@H](O)[C@@H](O[C@H]3O[C@H](CO)[C@@H](O)[C@H](N)[C@H]3O)[C@H](N)C[C@@H]2N)[C@H](O)[C@@H](O)[C@@H]1O [kanamycin]
[6]
  MIC: > 100 µg/mL

## CN(C)C1C(=O)C(C(N)=O)=C(O)C2(O)C(=O)C3=C(O)c4c(O)cccc4C(C)(O)C3CC12 (centres unmarked) [tetracycline]
[7]
  MIC: > 100 µg/mL

## CCC[C@@H]1C[C@@H](C(=O)N[C@@H]([C@H]2O[C@H](SC)[C@H](O)[C@@H](O)[C@H]2O)[C@@H](C)O)N(C)C1 [lincomycin]
[8]
  MIC: > 100 µg/mL

## CC[C@H](C)[C@H](N)C1=N[C@H](C(=O)N[C@@H](CC(C)C)C(=O)N[C@H](CCC(=O)O)C(=O)N[C@H](C(=O)N[C@H]2CCCCNC(=O)[C@H](CC(N)=O)NC(=O)[C@@H](CC(=O)O)NC(=O)[C@H](Cc3cnc[nH]3)NC(=O)[C@@H](Cc3ccccc3)NC(=O)[C@H]([C@@H](C)CC)NC(=O)[C@@H](CCCN)NC2=O)[C@@H](C)CC)CS1 [bacitracin] ({Ileψ(thiazoline)Cys}-L[dE]IK[dOrn]I[dF]H[dD]N; lactam 4-C)
[9]
  MIC: > 100 µg/mL

## O=C(N[C@H](CO)[C@H](O)c1ccc([N+](=O)[O-])cc1)C(Cl)Cl [chloramphenicol]
[10]
  MIC: > 100 µg/mL

## CO[C@H]1/C=C/O[C@@]2(C)Oc3c(C)c(O)c4c(O)c(c(/C=N/N5CCN(C)CC5)c(O)c4c3C2=O)NC(=O)/C(C)=C\C=C\[C@H](C)[C@H](O)[C@@H](C)[C@@H](O)[C@@H](C)[C@H](OC(C)=O)[C@@H]1C [rifampicin]
[11]
  MIC: > 100 µg/mL
